# Assays:
# rabbit blood = assay: effects on blood clotting, whole blood clotting time; conditions: for clotting time: rabbit whole blood
# Experimental: Sodium heparin (Kodama) used as positive control was diluted with saline at the concentration of 120 U/ml.
# Japan White rabbits (supplier: Kitayama Labes), 4 months old, were used for this study.
# Cardiopuncture was performed in a rabbit, and at when blood was started to be flowed into the syringe, the timer was made to start. The whole blood collected was carefully flowed into double glass tubes incubated. After putting the samples calmly for 3 minutes, the first tube was tilted gently every 30 seconds and the current of blood was observed. When blood in the first tube was clotted, the same operation was performed in the second tube. When the blood was clotted in the second tube, the timer was stopped, and this end point was recorded as whole blood clotting time.
# MT-4 cells = assay: cytotoxicity in mock-infected MT-4 cells (MTT method); assay type: cell-based
# Experimental: (§1) A test compound having various concentrations were placed in a 96-well microtiter plate along with HIV-infected MT-4 cells (2.5×10^4 /well, MOI (multiplicity of infection): 0.01) immediately after infection thereof. In order to ascertain the cytotoxicty of the test compound with respect to MT-4 cells, mock-infected (non-infected) cells were cultured in an identical manner along with the test compound of various concentrations. After incubating for 5 days at 37° C. in a CO2 atmosphere, the number of living cells were determined by using MTT method.
# Selectivity Index (S.I.) is expressed by the ratio of CC50 to EC50 (CC50 /EC50).
# HIV [1] = assay: anti-HIV activity, inhibition of HIV-induced cytopathicity in MT-4 cells (MTT method); assay type: cell-based; conditions: for EC50: HIV-infected MT-4 cells, MOI 0.01, 5 days, 37° C.; for S.I. (CC50/EC50): MT-4 cells, ratio of CC50 to EC50, 7200 min
# Experimental: as §1, with “method. The anti-HIV activity was evaluated with the method written by R. Pauwels, et al. (R. Pauwels, et al., J. Virol Methods, 20, 309 to 321 (1988)).” for “method.”
# The anti-HIV activity is shown in terms of EC50 (50% effective concentration) that is the concentration of a compound which inhibits 50% of HIV-induced cytopathicity in MT-4 cells, and the cytotoxity is shown in terms of CC50 (cytotoxic concentration) that is the concentration of a compound which reduces 50% of viability of mock-infected MT-4 cells. Selectivity Index (S.I.) is expressed by the ratio of CC50 to EC50 (CC50 /EC50).
# HIV [2] = assay: anti-HIV activity of serum after intravenous administration to mice; assay type: in vivo; conditions: for reciprocal number of concentration of the compound at 50% cell viability: mouse serum, 32 mg/kg
# Experimental: The effects of Compound 6 and dextran sulfate in vivo experiment were studied by duration of the activity using mouse.
# Compound 6 were dissolved with saline at the concentration of 32 mg/10 ml. Dextran sulfate (Control compound: M.W=8000: Sigma) were dissolved with it at the concentration of 80 mg/10 ml.
# Mouse (Crj:CD-1(ICR)) (supplier: Charles River Japan, Inc.), six weeks old were used for this study.
# Four groups (for 1, 4, 6 and 12 hours) of mice (one group: three mice) were used for the in vivo experiments of the Compound 6.
# The twelve mice were given an intravenous injection of the compound (in the tail vein; Dose 32 mg/kg).
# Three groups (for 20, 40 and 60 minutes) of mice (one group: two mice) were used for dextran sulfate such a method as described in Compound 6 (Dose 80 mg/kg). At decided times after injection, the blood was collected and serum was separated by centrifugation at low speed.
# The serum samples were stored at -80° C. until assayed. Each serum sample was diluted with culture medium to evaluate the effective concentration (the maximum concentration was set up to 10%). The method of this anti-HIV activity evaluation was the same one as described in EXAMPLE 49.
# (*)Various concentration of the serum solutions (diluted with the medium
# and the maximum concentration is 10%) were used for evaluation of the
# shown. That is why the higher the reciprocal number, the higher the […]
# [3] = mock-infected MT-4 cells, 5 days, 37° C.
# [4] = mock-infected MT-4 cells, 5 days, 37° C., 7200 min
Substance,CC50 (MT-4 cells; [3]),EC50 (HIV [1]) [µg/mL],S.I. (CC50/EC50) (HIV [1]),CC50 (MT-4 cells; [4]),further results
Heparin [reference compound],,,,,"clotting time (rabbit blood; 120 U/ml, positive control): > 60 min"
Sulfated 4-n-heptylphenyl O-benzoyl-β-D-galactosyl-(1→4)-β-D-galactosyl-(1→4)-β-D-glucoside [Compound 18],634 µg/mL,14.5,47,,
Sulfated 4-n-octyloxyphenyl O-4-fluorobenzoyl-β-D-laminaripentaoside [Compound 12],530 µg/mL,16.1,33,,
Sulfated 4-n-octyloxyphenyl O-benzoyl-β-D-laminaripentaoside [Compound 11],557 µg/mL,4.7,119,,
Sulfated 4-n-octyloxyphenyl O-octanoyl-β-D-laminaripentaoside [Compound 26],"> 1,000 μg/ml",1.7,> 588,,
Sulfated 4-n-octylphenyl O-4-fluorobenzoyl-β-D-laminaripentaoside [Compound 9],496 µg/mL,14.1,35,,
Sulfated 4-n-octylphenyl O-benzoyl-β-D-laminaripentaoside [Compound 8],556 µg/mL,6.8,82,,
Sulfated 4-t-octylphenyl O-benzoyl-β-D-galactosyl-(1→4)-β-D-galactosyl-(1→4)-β-D-glucoside [Compound 17],484 µg/mL,76.3,6,,
Sulfated 4-t-octylphenyl O-benzoyl-β-D-laminaripentaoside [Compound 14],557 µg/mL,16.4,119,,
Sulfated 4-t-octylphenyl O-n-octanoyl-β-D-laminaripentaoside [Compound 27],,0.63,"> 1,587",,"CC50 (MT-4 cells; human, mt-4 cells, 120 h): > 1,000 μg/ml"
"Sulfated dl-α-tocopheryl O-2,4-difluorobenzoyl-β-D-galactosyl-(1→4)-β-D-galactosyl-(1→4)-β-D-glucoside [Compound 43]",644 µg/mL,3.3,195,,
Sulfated dl-α-tocopheryl O-benzoyl-β-D-laminaripentaoside [Compound 44],,0.52,"1,317",685 µg/mL,
Sulfated dl-α-tocopheryl O-benzoyl-β-D-laminaripentaoside [Compound 45],,1.8,357,642 µg/mL,
Sulfated dl-α-tocopheryl O-benzoyl-β-D-laminaripentaoside [Compound 46],,3.9,41,160 µg/mL,
Sulfated dl-α-tocopheryl O-n-butyryl-β-D-galactosyl-(1→4)-β-D-galactosyl-(1→4)-β-D-glucoside [Compound 41],,5.4,109,586 µg/mL,
Sulfated dl-α-tocopheryl O-n-butyryl-β-D-galactosyl-(1→4)-β-D-galactosyl-(1→4)-β-D-glucoside [Compound 42],627 µg/mL,3.6,174,,
Sulfated dl-α-tocopheryl O-n-butyryl-β-D-laminaripentaoside [Compound 30],663 µg/mL,0.59,"1,124",,

Substance,CC50 (MT-4 cells; [3]),EC50 (HIV [1]) [µg/mL],S.I. (CC50/EC50) (HIV [1]),CC50 (MT-4 cells; [4]),further results
Sulfated dl-α-tocopheryl O-n-butyryl-β-D-laminaripentaoside [Compound 31],,1.1,195,214 µg/mL,
Sulfated dl-α-tocopheryl O-n-butyryl-β-D-laminaripentaoside [Compound 32],,6.4,18,115 µg/mL,
Sulfated dl-α-tocopheryl O-n-docosanoyl-β-D-laminaripentaoside [Compound 40],546 µg/mL,20.6,27,,
Sulfated dl-α-tocopheryl O-n-dodecanoyl-β-D-laminaripentaoside [Compound 36],,3.9,83,323 µg/mL,
Sulfated dl-α-tocopheryl O-n-dodecanoyl-β-D-laminaripentaoside [Compound 37],,25.1,3,77.4 µg/mL,
Sulfated dl-α-tocopheryl O-n-dodecanoyl-β-D-laminaripentaoside [Compound 38],,18.7,4,81.1 µg/mL,
Sulfated dl-α-tocopheryl O-n-dodecanoyl-β-D-laminaripentaoside [Compound 39],,15.3,38,586 µg/mL,
Sulfated dl-α-tocopheryl O-n-octanoyl-β-D-laminaripentaoside [Compound 33],,0.64,998,639 µg/mL,
Sulfated dl-α-tocopheryl O-n-octanoyl-β-D-laminaripentaoside [Compound 34],,16.0,30,472 µg/mL,
Sulfated dl-α-tocopheryl O-n-octanoyl-β-D-laminaripentaoside [Compound 35],,20.2,26,519 µg/mL,
"Sulfated n-dodecyl O-2,4-difluorobenzoyl-β-D-laminaripentaoside [Compound 6]","> 1,000 μg/ml",1.8,> 556,,"reciprocal number of concentration of the compound at 50% cell viability (HIV [2]; 1 hour after i.v. injection): 145; reciprocal number of concentration of the compound at 50% cell viability (HIV [2]; 4 hours after i.v. injection): 94; reciprocal number of concentration of the compound at 50% cell viability (HIV [2]; 6 hours after i.v. injection): 60; reciprocal number of concentration of the compound at 50% cell viability (HIV [2]; 12 hours after i.v. injection): 48; detection/duration of activity in serum (HIV [2]; mouse, i.v., Compound 6 32 mg/kg up to 12 hours, dextran sulfate 80 mg/kg up to 60 min): detected at a high concentration; comparing strength of effects on blood clotting (rabbit blood; at the concentration of more than 0.1%): dextran sulfate>1>6; clotting time (rabbit blood; 0.01%): 7.4 ± 0.6 min; clotting time (rabbit blood; 0.1%): 7.4 ± 0.6 min; clotting time (rabbit blood; 1.0%): 21.1 ± 1.7 min"
"Sulfated n-dodecyl O-2,4-difluorobenzoyl-β-D-laminaripentaoside [Compound 7]","> 1,000 μg/ml",2.1,> 476,,
Sulfated n-dodecyl O-4-fluorobenzoyl-β-D-laminaripentaoside [Compound 3],,2.0,482,,"CC50 (MT-4 cells; human, mt-4 cells, 120 h): 964 µg/mL"
Sulfated n-dodecyl O-4-fluorobenzoyl-β-D-laminaripentaoside [Compound 4],,1.7,509,866 µg/mL,
Sulfated n-dodecyl O-4-fluorobenzoyl-β-D-laminaripentaoside [Compound 5],,1.3,758,986 µg/mL,
Sulfated n-dodecyl O-benzoyl-β-D-laminaripentaoside [Compound 2],,0.4,"> 2,500","> 1,000 μg/ml",
